Measurements taken from patent US20070128586A1, “Therapeutic, prophylactic and diagnostic agents” (priority 2003, published 2007).

Assays:
sTNF RI (p55) = assay: Serum sTNFR assay, sTNF RI (p55), cirrhotic patients; type: in vivo, human; details: Child-Pugh B/C patients, n = 7; controls 1643, no lactulose 3852
Method: (§1) Peripheral blood was drawn using pyrogen-free needles, syringes and containers (Becton-Dickinson, Singapore). Plasma and serum were separated in a refrigerated centrifuge at 4° C. and stored at −70° C. in pyrogen-free polyethylene cryotubes (Nunc, Denmark) until analysis within six weeks of collection. Whole blood was used for determination of TLR expression on peripheral blood monocytes. Serum sTNF RI (p55) and sTNF RII (p75) were measured using Quantikine HS Human sTNFR Immunoassays (R&D Systems Inc., Minneapolis, USA), according to the manufacturer's instructions.

PBMCs [1] = assay: In vitro production of TNF-α by PBMCs stimulated with SEB; type: cell-based, human; details: Child-Pugh B/C patients, n = 7; SEB 10 ng/mL, 20 h; ratio stimulated to unstimulated cells
sTNF RII (p75) = assay: Serum sTNFR assay, sTNF RII (p75), cirrhotic patients; type: in vivo, human; details: Child-Pugh B/C patients, n = 7; controls 2438, no lactulose 5933
Method: as §1

TNF-α = assay: Serum TNF-α assay (Quantikine HS immunoassay), cirrhotic patients; type: in vivo, human; details: Child-Pugh B/C patients, n = 7; controls 1.7, no lactulose 3.1
TLR-2 = assay: Flow cytometry for TLR-2 expression on CD14+ve peripheral blood monocytes, cirrhotic patients; type: in vivo, human; details: Child-Pugh B/C patients, n = 7; ratio of geometric mean fluorescence to mean control values
PBMCs [2] = assay: In vitro production of TNF-α by PBMCs stimulated with endotoxin; type: cell-based, human; details: Child-Pugh B/C patients, n = 7; endotoxin 10 ng/mL, 20 h; ratio stimulated to unstimulated cells
[3] = Plasma endotoxin assay (chromogenic limulus amoebocyte lysate), cirrhotic patients; type: in vivo, human
TLR-4 = assay: Flow cytometry for TLR-4 expression on CD14+ve peripheral blood monocytes, cirrhotic patients; type: in vivo, human; details: Child-Pugh B/C patients, n = 7; ratio of geometric mean fluorescence to mean control values
From the text: Isotype matched non-binding controls were used for comparison. Ten thousand CD14^+ve cells were acquired for each sample and dead cells were gated out based on their light scatter properties on FACSCaliber flow cytometer (Becton Dickinson, USA). At least two control patients were used for standardization purposes every flow cytometry session. TLR-2 and TLR-4 values were expressed as a ratio of the geometric mean fluorescence of individual study patients to mean control values for that session.

HBV = HBV DNA in chronic Hepatitis B patients (Cobas Amplicor HBV Monitor Test); type: in vivo, Hepatitis B virus; details: five CHB patients; fell from >200,000 following treatment with lamivudine
Method: Eighteen non-cirrhotic patients with chronic Hepatitis B (CHB) and on-going viral replication (HBV DNA >200,000 genomes/mL, n=12 and 200-10,000 genomes/mL, n=6; Cobas Amplicor HBV Monitor (trademark) Test, USA) and 32 healthy control subjects were studied. TLR-2 and TLR-4 expression on CD14^+ve peripheral blood mononuclear cells (PBMC's) was measured by flow cytometry using anti-CD14 (Becton Dickinson) and anti-TLR-2 and anti-TLR-4 (eBioscience, USA) monoclonal antibodies. TLR expression was reassessed in five patients in whom HBV DNA fell from >200,000 to <200 genomes/mL following treatment with lamivudine. In vitro TLR-2 expression by PBMCs was measured in five control subjects at baseline and following stimulation for 20 h by partially purified recombinant HBV. […] TLR-2 expression normalised in each of the five lamivudine-treated CHB patients in whom HBV DNA became undetectable. In vitro expression of TLR-2 fell in a concentration-dependent manner following exposure to recombinant HBV.

| Compound | Serum soluble TNF receptor I, Median (sTNF RI (p55)) [pg/mL] | In vitro production of TNF-α by PBMCs in response to SEB, Median (PBMCs [1]) | Serum soluble TNF receptor II, Median (sTNF RII (p75)) [pg/mL] | Serum TNF-α, Median (TNF-α) [pg/mL] | Expression of TLR-2 on CD14+ve PBMCs, Median (TLR-2) | In vitro production of TNF-α by PBMCs in response to endotoxin, Median (PBMCs [2]) | Plasma endotoxin, Median ([3]; Child-Pugh B/C patients, n = 7, controls 25, no lactulose 49) [pg/mL] | Plasma endotoxin values compared with control subjects ([3]; subgroup of Child-Pugh B and C patients treated with lactulose) | Expression of TLR-4 on CD14+ve PBMCs, Median (TLR-4) | HBV DNA following treatment (HBV) [genomes/mL] |
| --- | --- | --- | --- | --- | --- | --- | --- | --- | --- | --- |
| OC[C@H]1O[C@@H](O[C@@H]2[C@@H](CO)OC(O)(CO)[C@H]2O)[C@H](O)[C@@H](O)[C@H]1O (mixture of isomers) [lactulose] | 3878 | 1.5 | 5440 | 4.2 | 1.29 | 3.1 | 13 | not significantly different from those in control subjects | 1.06 | – |
| Nc1ccn([C@@H]2CS[C@H](CO)O2)c(=O)n1 [lamivudine] | – | – | – | – | – | – | – | – | – | < 200 |
